Data on one compound can be found in patent US5942511A, “Allylthiopyridazine derivatives and process for preparing the same” (Kwon; Soon Kyoung, priority 1998, dated 1999).

Data set [1] deals with hepatocyte necrosis. Description: Effect of inhibiting hepatic disorder induced by carbon tetrachloride: hepatocyte necrosis. The class given is in vivo, male ICR mice. The following applies: CCl4 model, 50 mg/kg per day oral, 3 days. The procedure: (§1) In the present invention, the inhibiting effect of the compound of formula (I) on hepatic disorder, induced by carbon tetrachloride and acetaminophene, was determined after oral administration of the novel compound according to the present invention to mouse as the experimental animal for 3 days. The degree of liver damage in respective experimental animal was determined by measuring ALT and LDH levels in blood [see, Biol. Pharm. Bull., 20, 4, 381-385, 1997; Toxicology and Applied Pharmacology, 95, 1-11, 1988], and further by removing the liver, staining (×100) the liver with hematoxylin and eosin and then observing with microscope to examine the degree of hepatocyte necrosis.
The liver protective effect of the compound according to the present invention was examined according to the known method [see, Philippe letteron et al., Biochemical Pharmacology, 39, 12, 2027-2034, 1990] as specifically described below.
The compound according to the present invention was suspended in corn oil and the resulting suspension was administered in an amount of 1.0 ml/kg. Each group was composed of 3 to 10 male ICR mice (5-6 weeks) and the test compound was orally administered for 3 days in the dose of 50 mg/kg per day. After the test compound was administered, carbon tetrachloride was intraperitoneally injected in an amount of 100 μl/kg. In this experiment, silymarin was used as the comparative compound. After 24 hours from administration of carbon tetrachloride, blood was taken from the test animal by cardiac perforation and ALT value in serum was determined. The result obtained is described in the following Table 2 (in which ALT value is represented by mean±SE). The ALT unit in serum was determined by centrifuging blood to separate serum as the supernatant, and then the separated serum were subjected to Reitman-Frankel method by means of a commercially available kit (BC101-O,P, Youngdong Pharm.). That is, DL-alanine and α-ketoglutarate were used as the substrate solution to which 2,4-dinitrophenylhydrazine was added to produce hydrazone. Then, sodium hydroxide was added to hydrazone to colorize and then the absorbance was measured at 505 nm.
In addition, liver was removed from the test animals, stained (×100) with hematoxylin and eosin and then observed by microscope. The degree of hepatocyte necrosis was evaluated according to the following 5 grades: 0 no lesion, 1 mild lesion, 2 moderate lesion, 3 severe lesion and 4 diffused lesion.

The nature of data set [2]: Acute toxicity test, single oral administration. The following applies: in vivo, mouse, Litchfield-Wilcoxon method, 95% confidence interval 3.26-4.78 g/kg (Example 4). The class given is in vivo. As for the experimental part: (§2) Moreover, as a result of an acute toxicity test using mouse to evaluate the general toxicity of the compound according to the present invention, when the compound is single administered via oral route, the LD50 value of the respective compound is 3.5 g/kg or more. Therefore, the compound of the present invention is determined as being very safe.
(§3) The acute toxicity test was carried out to quantitatively and qualitatively examine the toxicity which occurs within a short period of time after a single administration of the test compound to the experimental animal.
(§4) In this experiment, the acute toxicity test was conducted using 5-6 weeks ICR male mouse obtained from Korea Experimental Animal Center. From 6 p.m., the day before administration of the test compound, to 9 a.m. the day on which the test compound is administered, mouse was fasted. The test compound was ground and suspended in corn oil and then administered in the dose of 1000 to 6000 mg/kg to the experimental animal. For each dose, 6 animals were used. The test compound was prepared and used on that day, and was single administered via oral route by means of a needle. After the compound of Example 4, as typical example of the compound according to the present invention was administered, the survived and died animals were observed during 14 days.

The subject of data set [3] is ICR male mouse. Description: Acute toxicity test, single oral administration. The class given is in vivo. The following applies: 14 days. As for the experimental part:
as §2, §3, §4

The test system of data set [4] is serum ALT (alanine aminotransferase). Description: Effect of inhibiting hepatic disorder induced by acetaminophen (APAP): serum ALT. The settings on record: APAP 0.5 g/kg oral, compound 50 mg/kg per day oral, 3 days. The class given is in vivo, male ICR mice.
Source text: In addition, the liver protective effects of the compound of the present invention can also be confirmed by acetaminophen model [see, Wang et al., Toxicology and applied Pharmacology, 136, 146-154, 1996]. Acetaminophen is rapidly metabolized by CYP2E1 to cause hepatic toxicity, which results in structural and functional change in liver cellular membrane, causing necrosis in hepatic lobule, an increase in blood ALT and LDH (lactate dehydrogenase) levels.
as §1
Effect of inhibiting hepatic disorder induced by acetaminophen (APAP)
The liver protective effect of the compound according to the present invention was examined according to the known method [see, Wang et al., Toxicology and applied Pharmacology, 136, 146-154, 1996] as specifically described below.
The compound according to the present invention was suspended in corn oil and the resulting suspension was administered in an amount of 1.0 ml/kg. Each group was composed of 3 to 10 male ICR mice (5-6 weeks) and the test compound was orally administered for 3 days in the dose of 50 mg/kg per day. After 2 hours from the last administration of the test compound, acetaminophen was orally administered in an amount of 0.5 g/kg. In this experiment, silymarin was used as the comparative compound. After 22 hours from the administration of acetaminphen, blood was taken from the individual test animal and ALT and LDH values in serum were determined. The results as obtained are described in the following Tables 4 and 5 (in which ALT and LDH values are represented by mean±SE). In addition, liver was removed from the test animals and then observed according to the same manner as Experiment 3 to evaluate the degree of hepatocyte necrosis.

SMILES strings stand for the structures.

For the compound `C=CCSc1ccc(OC)nn1` [Example 4, 3-methoxy-6-allylthiopyridazine], the “Degree of necrosis 0: number of animals” value in data set [1] (grade 0 no lesion) is recorded as 0. Moreover, in data set [1] (grade 1 mild lesion), the “Degree of necrosis 1: number of animals” value was 1. The “Degree of necrosis 2: number of animals” value in data set [1] (grade 2 moderate lesion) worked out at 5. The “Degree of necrosis 3: number of animals” value in data set [1] (grade 3 severe lesion) is 2. Moreover, the “Degree of necrosis 4: number of animals” value in data set [1] (grade 4 diffused lesion) is reported as 2. The LD50 at 336 h in data set [2] was 3950 mg/kg. Further, the “D/T (number of died animals / number of test animals)” value in data set [3] (1000 mg/kg) is given as 0/6; in data set [3] (2000 mg/kg) it was 0/6; in data set [3] (3000 mg/kg), 1/6; in data set [3] (4000 mg/kg), 3/6; in data set [3] (5000 mg/kg), 4/6; in data set [3] (6000 mg/kg) it was 6/6. In data set [4], the “Inhibiting rate (serum ALT)” value was 97%. Moreover, the “Serum ALT value” in data set [4] (mean±SE) is 186 ± 118 KA unit/l.

For orientation: LD50 means the dose at which mortality reaches 50%. A high value points to lower toxicity.
